Patent US7884242B2, “N-heterocyclylphthaldiamides as insecticides” (Bayer CropScience AG, priority 2004, dated 2011)
Where a name gives a salt, the structure may show the parent alone.

Columns and labels:
[1] = log P determination by HPLC on reverse phase column, pH 2.3; type: physicochemical; conditions: reverse phase column (C 18), pH 2.3, 43° C.; for chromatographic logP: reverse phase HPLC column (C 18)
Description: The determination of the log P values given in the above table and preparation examples is carried out in accordance with EEC directive 79/831 Annex V.A8 by HPLC (High Performance Liquid Chromatography) on a reverse phase column (C 18). Temperature: 43° C. The determination is carried out under acidic conditions at pH 2.3 with 0.1% aqueous phosphoric acid and acetonitrile as eluents; linear gradient of 10% acetonitrile to 95% acetonitrile. Calibration was is carried out with unbranched alkan-2-ones (with 3 to 16 carbon atoms) of known log P values (Determination of log P values by the retention times by linear interpolation between two sequential alkanones).

[2] = system: green peach aphid (Myzus persicae); assay: Myzus test (spray treatment); type: in vivo; conditions: for pest or weed control at 100 g/ha: Myzus persicae, in Brassica oleracea, 120 h, read-out: Death rate in % after 5d; for activity in Myzus test (spray treatment): statement in words
Description: [table] For the preparation of a suitable active compound formulation 1 part by weight of the active compound is mixed with the above amounts of solvent and emulsifier and the concentrate is diluted to the desired concentration with water containing emulsifier. China cabbage slices (Brassica pekinensis) that are infected with all stages of the green peach aphid (Myzus persicae) are sprayed with an active compound preparation at the desired concentration. After the desired time the activity in % is determined. Here 100% means that all aphids were killed; 0% means that no aphids were killed.

[3] = system: caterpillars of the fall army worm (Spodoptera frugiperda); assay: Spodoptera frugiperda test (spray treatment); type: in vivo; conditions: for pest or weed control at 4 g/ha: Spodoptera frugiperda, 168 h, spray treatment, maize leaf sections, after 7 d, read-out: Death rate in % after 7d; for activity in Spodoptera frugiperda test (spray treatment): statement in words
Description: [table] For the preparation of a suitable active compound formulation 1 part by weight of the active compound is mixed with the above amounts of solvent and emulsifier and the concentrate is diluted to the desired concentration with water containing emulsifier. Maize leaf sections (Zea mays) are sprayed with an active compound preparation of the desired concentration and after drying infected with caterpillars of the fall army worm (Spodoptera frugiperda). After the desired time the activity in % is determined. Here 100% means that all caterpillars were killed; 0% means that no caterpillars were killed.

[4] = 100 g/ha, spray treatment, China cabbage slices, after 5 d

Row | Structure (SMILES) | chromatographic logP [1] | pest or weed control at 100 g/ha [2, 4] [%] | activity in Myzus test (spray treatment) [2] | log P (pH 2.3) [1] | other results
1 | Cc1nc(Cn2nc(C(F)(F)F)cc2C(F)(F)F)ncc1C(=O)O [2-(3,5-bistrifluoromethylpyrazol-1-yl-methyl)-4-methylpyrimidin-5-carboxylic acid] | 2.68 | – | – | – | –
2 | CSC[C@H](C)NC(=O)c1c(Cl)cccc1C(=O)Nc1cc(Cn2nc(C(F)(F)F)nc2C(F)(F)F)sc1C [Example 3] | 3.8 | – | – | – | –
3 | CSC[C@H](C)NC(=O)c1c(Cl)cccc1C(=O)Nc1cnc(Cn2nc(C(F)(F)F)cc2C(F)(F)F)nc1C [Example 4, N^1-[2-(3,5-bis-trifluoromethyl-pyrazol-1-ylmethyl)-4-methylpyrimidin-5-yl]-3-chloro-N^2-(S-1-methyl-2-methylsulphanylethyl)phthalamide] | 3.39 | – | – | – | –
4 | Cc1nc(Cn2nc(C(F)(F)F)cc2C(F)(F)F)ncc1NC(=O)c1cccc(Cl)c1C(=O)N[C@@H](C)C[S+](C)[O-] (some centres unmarked) [Example 5, N^1-[2-(3,5-bistrifluoromethylpyrazol-1-ylmethyl)-4-methylpyrimidin-5-yl]-3-chloro-N^2-(S-2-methanesulphinyl-1-methylethyl)phthalamide] | 2.17 | 80 | good activity | – | –
5 | Cc1nc(Cn2nc(C(F)(F)F)cc2C(F)(F)F)ccc1NC(=O)c1cccc(Br)c1C(=O)NC(C)C[S+](C)[O-] (centres unmarked) [Example 11] | – | – | – | log P (pH 2.3): 2.32 | –
6 | CSCC(C)NC(=O)c1c(I)cccc1C(=O)Nc1ccc(Cn2nc(C(F)(F)F)nc2C(F)(F)F)nc1C (centres unmarked) [Example 12] | – | – | – | log P (pH 2.3): 3.52 | –
7 | CSC[C@H](C)NC(=O)c1c(Br)cccc1C(=O)Nc1cnc(Cn2nc(C(F)(F)F)cc2C(F)(F)F)nc1C [Example 18] | 3.44 | 100 | good activity | – | pest or weed control at 4 g/ha [3]: 100%; activity in Spodoptera frugiperda test (spray treatment) [3]: good activity
8 | CSC[C@H](C)NC(=O)c1c(I)cccc1C(=O)Nc1cnc(Cn2nc(C(F)(F)F)cc2C(F)(F)F)nc1C [Example 19] | 3.55 | 100 | good activity | – | pest or weed control at 4 g/ha [3]: 83%; activity in Spodoptera frugiperda test (spray treatment) [3]: good activity
9 | CSC[C@H](C)NC(=O)c1c(Cl)cccc1C(=O)Nc1cnc(Cn2nc(C(F)(F)F)nc2C(F)(F)F)nc1C [Example 20] | 3.24 | 100 | good activity | – | –
10 | CSC[C@H](C)NC(=O)c1c(Br)cccc1C(=O)Nc1cnc(Cn2nc(C(F)(F)F)nc2C(F)(F)F)nc1C [Example 21] | 3.29 | 100 | good activity | – | –
11 | CSC[C@H](C)NC(=O)c1c(I)cccc1C(=O)Nc1cnc(Cn2nc(C(F)(F)F)nc2C(F)(F)F)nc1C [Example 22] | 3.35 | 90 | good activity | – | –
12 | Cc1nc(Cn2nc(C(F)(F)F)cc2C(F)(F)F)ncc1NC(=O)c1cccc(Br)c1C(=O)N[C@@H](C)C[S+](C)[O-] (some centres unmarked) [Example 23] | 2.2 | 80 | good activity | – | –
13 | Cc1nc(Cn2nc(C(F)(F)C(F)(F)F)cc2C(F)(F)C(F)(F)F)ncc1NC(=O)c1cccc(Cl)c1C(=O)NC(C)CS(C)(=O)=O (centres unmarked) [Example 25] | – | – | – | log P (pH 2.3): 3.29 | –
14 | Cc1nc(Cn2nc(C(F)(F)C(F)(F)F)cc2C(F)(F)C(F)(F)F)ncc1NC(=O)c1cccc(Cl)c1C(=O)NC(C)C[S+](C)[O-] (centres unmarked) [Example 26] | – | – | – | log P (pH 2.3): 2.91 | –
15 | CSCC(C)NC(=O)c1c(Cl)cccc1C(=O)Nc1cnc(Cn2nc(C(F)(F)C(F)(F)F)cc2C(F)(F)C(F)(F)F)nc1C (centres unmarked) [Example 27] | – | – | – | log P (pH 2.3): 4.11 | –
16 | Cc1nc(Cn2nc(C(F)(F)C(F)(F)F)nc2C(F)(F)F)ncc1NC(=O)c1cccc(Br)c1C(=O)N[C@@H](C)C[S+](C)[O-] (some centres unmarked) [Example 28] | 2.42 | 100 | good activity | – | –
17 | Cc1nc(Cn2nc(C(F)(F)C(F)(F)F)nc2C(F)(F)F)ncc1NC(=O)c1cccc(Cl)c1C(=O)N[C@@H](C)C[S+](C)[O-] (some centres unmarked) [Example 29] | 2.41 | 100 | good activity | – | pest or weed control at 4 g/ha [3]: 100%; activity in Spodoptera frugiperda test (spray treatment) [3]: good activity
18 | Cc1nc(Cn2nc(C(F)F)cc2C(F)F)ncc1NC(=O)c1cccc(Cl)c1C(=O)NC(C)C[S+](C)[O-] (centres unmarked) [Example 32] | – | – | – | log P (pH 2.3): 1.67 | –
19 | Cc1nc(Cn2nc(C(F)F)cc2C(F)F)ncc1NC(=O)c1cccc(Cl)c1C(=O)NC(C)CS(C)(=O)=O (centres unmarked) [Example 33] | – | – | – | log P (pH 2.3): 1.89 | –

Row | Structure (SMILES) | chromatographic logP [1] | pest or weed control at 100 g/ha [2, 4] [%] | activity in Myzus test (spray treatment) [2] | log P (pH 2.3) [1] | other results
20 | CSCC(C)NC(=O)c1c(Cl)cccc1C(=O)Nc1cnc(Cn2nc(C(F)F)cc2C(F)F)nc1C (centres unmarked) [Example 35] | – | – | – | log P (pH 2.3): 2.65 | –
21 | Cc1nc(Cn2nc(C(F)(F)F)nc2C(F)(F)F)ncc1NC(=O)c1cccc(Br)c1C(=O)N[C@@H](C)C[S+](C)[O-] (some centres unmarked) [Example 36] | 2.07 | 100 | good activity | – | –
22 | Cc1nc(Cn2nc(C(F)(F)F)nc2C(F)(F)F)ncc1NC(=O)c1cccc(Br)c1C(=O)N[C@@H](C)CS(C)(=O)=O [Example 37] | 2.49 | 100 | good activity | – | –
23 | Cc1nc(Cn2nc(C(F)(F)F)cc2C(F)(F)F)ncc1NC(=O)c1cccc(Cl)c1C(=O)N[C@@H](C)CS(C)(=O)=O [Example 38] | – | 100 | – | – | –
24 | Cc1nc(Cn2nc(C(F)(F)F)cc2C(F)(F)F)ncc1NC(=O)c1cccc(Cl)c1C(=O)N[C@@H](C)C[S+](C)[O-] (some centres unmarked) [Example 39] | – | – | good activity | – | Death rate in % after 5d [2, 4]: 100%
25 | Cc1nc(Cn2nc(C(F)(F)F)nc2C(F)(F)F)ncc1NC(=O)c1cccc(I)c1C(=O)N[C@@H](C)C[S+](C)[O-] (some centres unmarked) [Example 40] | 2.13 | 100 | good activity | – | –
26 | CSCC(C)NC(=O)c1c(Cl)cccc1C(=O)Nc1ccc(Cn2nc(C(F)(F)C(F)(F)F)cc2C(F)(F)F)nc1C (centres unmarked) [Example 42] | – | – | – | log P (pH 2.3): 3.95 | –
27 | CSCC(C)NC(=O)c1c(Cl)cccc1C(=O)Nc1ccc(Cn2nc(C(F)(F)C(F)(F)F)nc2C(F)(F)F)nc1C (centres unmarked) [Example 43] | – | – | – | log P (pH 2.3): 3.80 | –
28 | Cc1nc(Cn2nc(C(F)(F)F)cc2C(F)(F)F)ccc1NC(=O)c1cccc(Br)c1C(=O)NC(C)CS(C)(=O)=O (centres unmarked) [Example 45] | – | – | – | log P (pH 2.3): 2.76 | –
29 | CSCC(C)NC(=O)c1c(Cl)cccc1C(=O)Nc1ccc(Cn2nc(C(F)(F)C(F)(F)F)c(C(F)(F)F)c2F)nc1C (centres unmarked) [Example 46] | – | – | – | log P (pH 2.3): 4.15 | –
30 | CSCC(C)NC(=O)c1c(Cl)cccc1C(=O)Nc1ccc(Cn2nc(C(F)(F)C(F)(F)F)nc2C(F)(F)C(F)(F)F)nc1C (centres unmarked) [Example 47] | – | – | – | log P (pH 2.3): 4.23 | –
31 | CSCC(C)NC(=O)c1c(Cl)cccc1C(=O)Nc1ccc(Cn2nc(C(F)(F)C(F)(F)F)cc2C(F)(F)C(F)(F)F)nc1C (centres unmarked) [Example 49] | – | – | – | log P (pH 2.3): 4.37 | –
32 | CCOC(=O)c1cnc(Cn2nc(C(F)(F)F)cc2C(F)(F)F)nc1C [Example V-1, ethyl 2-(3,5-bistrifluoromethyl-pyrazol-1-yl-methyl)-4-methylpyrimidine-5-carboxylate] | 3.96 | – | – | – | –
33 | CSC[C@H](C)/N=C1\OC(=O)c2cccc(I)c21 [II-1, 4-iodo-3-[(1S)-1-methyl-2-methylsulphanylethylimino]-3H-isobenzofuran-1-one] | 3.87 | – | – | – | –
34 | Cc1nc(Cn2nc(C(F)(F)F)cc2C(F)(F)F)ncc1N [IIIa-2, 2-(3,5-bis-trifluoromethylpyrazol-1-yl-methyl)-4-methylpyrimidin-5-yl-amine] | 2.43 | – | – | – | –
35 | N=C(N)Cn1nc(C(F)(F)F)cc1C(F)(F)F [IX-1, 2-(3,5-bistrifluoromethyl-pyrazol-1-yl)acetamidine hydrochloride] | 0.74 | – | – | – | –
36 | Cc1nc(Cn2nc(C(F)(F)F)cc2C(F)(F)F)ncc1NC(=O)OC(C)(C)C [VI-1, tert-butyl [2-(3,5-bistrifluoromethylpyrazol-1-ylmethyl)-4-methylpyrimidin-5-yl]carbamidate] | 3.84 | – | – | – | –
37 | COC(=O)Cn1nc(C(F)(F)F)cc1C(F)(F)F [methyl (3,5-bistrifluoromethyl-pyrazol-1-yl)acetate] | 2.93 | – | – | – | –
